The kinase profiling compilation of Christmann-Franck et al. (2016)

Assays:
Assay in all cases: KINOMEscan competition binding
Details in all cases: compound 10.0 µM
[1] = target: PRKAA1 (human) (UniProt Q13131)
[2] = target: MARK2 (human) (UniProt Q7KZI7)
[3] = target: CAMK1D (human) (UniProt Q8IU85)
[4] = target: LATS1 (human) (UniProt O95835)
[5] = target: HIPK1 (human) (UniProt Q86Z02)
[6] = test system: FLT3 (human), P36888 [N841I]
[7] = target: RPS6KA5 KD2 (human) (UniProt O75582)
[8] = target: RPS6KA5 KD1 (human) (UniProt O75582)
Chain of RPS6KA5 KD1 (human) (O75582 whole entry, looked up): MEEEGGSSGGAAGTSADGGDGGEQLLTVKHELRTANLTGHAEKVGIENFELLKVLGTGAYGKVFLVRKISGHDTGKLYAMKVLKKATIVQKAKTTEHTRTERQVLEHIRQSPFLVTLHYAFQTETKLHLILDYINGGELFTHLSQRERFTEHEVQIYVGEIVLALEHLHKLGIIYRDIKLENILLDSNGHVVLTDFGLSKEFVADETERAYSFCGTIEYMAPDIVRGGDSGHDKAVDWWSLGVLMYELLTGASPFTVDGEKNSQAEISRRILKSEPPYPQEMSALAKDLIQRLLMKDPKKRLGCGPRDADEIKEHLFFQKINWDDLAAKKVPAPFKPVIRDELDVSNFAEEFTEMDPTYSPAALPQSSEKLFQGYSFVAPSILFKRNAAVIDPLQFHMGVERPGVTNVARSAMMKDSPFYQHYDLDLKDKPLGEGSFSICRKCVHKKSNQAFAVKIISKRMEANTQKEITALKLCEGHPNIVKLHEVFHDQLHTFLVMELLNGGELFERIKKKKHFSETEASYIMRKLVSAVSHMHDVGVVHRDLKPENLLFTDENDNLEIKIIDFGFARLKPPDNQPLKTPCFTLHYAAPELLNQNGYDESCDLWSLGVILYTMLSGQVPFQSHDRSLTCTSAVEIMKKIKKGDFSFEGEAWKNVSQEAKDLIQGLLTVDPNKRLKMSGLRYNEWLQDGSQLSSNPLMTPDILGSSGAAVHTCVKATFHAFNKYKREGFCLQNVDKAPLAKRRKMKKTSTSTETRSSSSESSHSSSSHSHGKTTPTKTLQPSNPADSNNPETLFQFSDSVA

[9] = target: TLK2 (human) (UniProt Q86UE8)
[10] = test system: FLT3 (human), P36888 [ITD]
[11] = target: DYRK1B (human) (UniProt Q9Y463)
[12] = target: NEK1 (human) (UniProt Q96PY6)
Chain of NEK1 (human) (Q96PY6 whole entry, looked up): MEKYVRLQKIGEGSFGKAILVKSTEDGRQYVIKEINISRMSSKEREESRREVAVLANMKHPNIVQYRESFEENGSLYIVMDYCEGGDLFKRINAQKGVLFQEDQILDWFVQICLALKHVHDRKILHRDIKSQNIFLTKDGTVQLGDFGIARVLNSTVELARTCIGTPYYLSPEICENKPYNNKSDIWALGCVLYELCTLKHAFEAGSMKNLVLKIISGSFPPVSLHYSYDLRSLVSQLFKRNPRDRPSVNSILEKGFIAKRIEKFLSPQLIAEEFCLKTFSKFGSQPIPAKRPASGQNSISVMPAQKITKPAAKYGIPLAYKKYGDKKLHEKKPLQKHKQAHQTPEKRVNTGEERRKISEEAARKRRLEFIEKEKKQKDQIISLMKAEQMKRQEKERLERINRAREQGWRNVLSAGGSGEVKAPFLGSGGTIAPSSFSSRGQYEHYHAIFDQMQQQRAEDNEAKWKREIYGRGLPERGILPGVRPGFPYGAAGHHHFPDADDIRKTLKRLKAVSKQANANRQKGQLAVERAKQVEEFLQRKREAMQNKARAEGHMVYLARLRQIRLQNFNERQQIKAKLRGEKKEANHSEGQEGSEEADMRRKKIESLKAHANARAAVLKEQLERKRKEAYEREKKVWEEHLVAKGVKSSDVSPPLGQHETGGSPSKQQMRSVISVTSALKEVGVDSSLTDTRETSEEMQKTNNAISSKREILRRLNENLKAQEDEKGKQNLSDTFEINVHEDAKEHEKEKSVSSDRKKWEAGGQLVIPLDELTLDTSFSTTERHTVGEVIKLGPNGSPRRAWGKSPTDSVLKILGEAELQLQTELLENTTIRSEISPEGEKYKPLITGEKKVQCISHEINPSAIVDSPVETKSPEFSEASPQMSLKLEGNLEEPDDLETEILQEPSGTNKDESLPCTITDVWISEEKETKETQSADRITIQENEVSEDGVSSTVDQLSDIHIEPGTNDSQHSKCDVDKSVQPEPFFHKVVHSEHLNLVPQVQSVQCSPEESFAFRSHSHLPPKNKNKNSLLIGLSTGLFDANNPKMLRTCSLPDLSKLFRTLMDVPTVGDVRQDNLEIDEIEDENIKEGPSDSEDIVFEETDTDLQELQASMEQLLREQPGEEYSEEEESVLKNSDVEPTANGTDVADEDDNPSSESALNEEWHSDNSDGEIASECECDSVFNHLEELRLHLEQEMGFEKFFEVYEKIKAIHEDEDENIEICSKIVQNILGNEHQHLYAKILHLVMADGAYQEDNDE

[13] = target: MKNK1 (human) (UniProt Q9BUB5)
[14] = target: PRKG1 (human) (UniProt Q13976)
[15] = target: MAPK13 (human) (UniProt O15264)
Chain of MAPK13 (human) (O15264 whole entry, looked up): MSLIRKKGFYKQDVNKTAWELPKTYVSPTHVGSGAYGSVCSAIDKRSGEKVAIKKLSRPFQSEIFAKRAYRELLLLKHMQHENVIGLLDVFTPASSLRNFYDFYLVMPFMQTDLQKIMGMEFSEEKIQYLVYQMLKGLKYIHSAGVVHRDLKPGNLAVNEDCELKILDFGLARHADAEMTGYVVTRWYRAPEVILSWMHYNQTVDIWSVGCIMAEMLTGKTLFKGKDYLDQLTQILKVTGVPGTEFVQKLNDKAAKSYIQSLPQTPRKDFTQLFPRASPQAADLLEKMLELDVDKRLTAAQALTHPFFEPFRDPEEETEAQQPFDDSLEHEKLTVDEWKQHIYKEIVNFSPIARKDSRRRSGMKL

[16] = target: STK38L (human) (UniProt Q9Y2H1)
[17] = target: CSNK2A2 (human) (UniProt P19784)
[18] = target: EPHB3 (human) (UniProt P54753)
Chain of EPHB3 (human) (P54753 whole entry, looked up): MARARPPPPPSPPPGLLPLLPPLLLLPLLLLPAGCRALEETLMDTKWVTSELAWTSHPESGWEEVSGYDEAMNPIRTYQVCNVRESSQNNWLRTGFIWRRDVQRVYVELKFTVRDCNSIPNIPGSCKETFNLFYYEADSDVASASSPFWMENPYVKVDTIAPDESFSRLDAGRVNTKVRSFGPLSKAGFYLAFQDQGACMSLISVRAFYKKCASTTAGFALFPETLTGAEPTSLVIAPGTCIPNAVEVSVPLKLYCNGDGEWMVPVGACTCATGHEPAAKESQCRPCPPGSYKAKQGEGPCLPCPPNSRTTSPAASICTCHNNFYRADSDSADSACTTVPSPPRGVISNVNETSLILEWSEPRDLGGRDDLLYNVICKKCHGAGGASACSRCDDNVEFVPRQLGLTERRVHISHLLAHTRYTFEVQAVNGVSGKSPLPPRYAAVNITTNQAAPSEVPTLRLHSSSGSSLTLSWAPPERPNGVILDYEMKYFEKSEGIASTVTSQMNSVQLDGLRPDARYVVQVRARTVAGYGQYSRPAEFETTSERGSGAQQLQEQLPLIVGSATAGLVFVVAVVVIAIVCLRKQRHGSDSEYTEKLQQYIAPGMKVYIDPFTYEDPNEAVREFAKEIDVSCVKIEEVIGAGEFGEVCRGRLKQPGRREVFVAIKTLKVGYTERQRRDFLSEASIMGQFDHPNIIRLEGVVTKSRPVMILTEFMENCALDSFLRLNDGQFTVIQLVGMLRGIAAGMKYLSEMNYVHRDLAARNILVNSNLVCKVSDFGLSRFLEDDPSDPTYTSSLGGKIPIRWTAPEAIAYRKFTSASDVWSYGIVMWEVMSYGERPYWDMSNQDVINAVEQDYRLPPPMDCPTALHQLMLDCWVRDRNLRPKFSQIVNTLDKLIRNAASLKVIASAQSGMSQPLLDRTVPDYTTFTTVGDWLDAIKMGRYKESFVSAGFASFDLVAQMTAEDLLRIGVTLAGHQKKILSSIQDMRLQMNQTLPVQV

[19] = target: PRKCE (human) (UniProt Q02156)
[20] = target: PRKX (human) (UniProt P51817)
[21] = target: CLK4 (human) (UniProt Q9HAZ1)
[22] = target: KDR (human) (UniProt P35968)
[23] = target: MYLK2 (human) (UniProt Q9H1R3)
[24] = target: PLK1 (human) (UniProt P53350)
[25] = target: ANKK1 (human) (UniProt Q8NFD2)
[26] = target: MAPK11 (human) (UniProt Q15759)
[27] = target: TYRO3 (human) (UniProt Q06418)
[28] = target: ALK (human) (UniProt Q9UM73)
Chain of ALK (human) (Q9UM73 whole entry, looked up): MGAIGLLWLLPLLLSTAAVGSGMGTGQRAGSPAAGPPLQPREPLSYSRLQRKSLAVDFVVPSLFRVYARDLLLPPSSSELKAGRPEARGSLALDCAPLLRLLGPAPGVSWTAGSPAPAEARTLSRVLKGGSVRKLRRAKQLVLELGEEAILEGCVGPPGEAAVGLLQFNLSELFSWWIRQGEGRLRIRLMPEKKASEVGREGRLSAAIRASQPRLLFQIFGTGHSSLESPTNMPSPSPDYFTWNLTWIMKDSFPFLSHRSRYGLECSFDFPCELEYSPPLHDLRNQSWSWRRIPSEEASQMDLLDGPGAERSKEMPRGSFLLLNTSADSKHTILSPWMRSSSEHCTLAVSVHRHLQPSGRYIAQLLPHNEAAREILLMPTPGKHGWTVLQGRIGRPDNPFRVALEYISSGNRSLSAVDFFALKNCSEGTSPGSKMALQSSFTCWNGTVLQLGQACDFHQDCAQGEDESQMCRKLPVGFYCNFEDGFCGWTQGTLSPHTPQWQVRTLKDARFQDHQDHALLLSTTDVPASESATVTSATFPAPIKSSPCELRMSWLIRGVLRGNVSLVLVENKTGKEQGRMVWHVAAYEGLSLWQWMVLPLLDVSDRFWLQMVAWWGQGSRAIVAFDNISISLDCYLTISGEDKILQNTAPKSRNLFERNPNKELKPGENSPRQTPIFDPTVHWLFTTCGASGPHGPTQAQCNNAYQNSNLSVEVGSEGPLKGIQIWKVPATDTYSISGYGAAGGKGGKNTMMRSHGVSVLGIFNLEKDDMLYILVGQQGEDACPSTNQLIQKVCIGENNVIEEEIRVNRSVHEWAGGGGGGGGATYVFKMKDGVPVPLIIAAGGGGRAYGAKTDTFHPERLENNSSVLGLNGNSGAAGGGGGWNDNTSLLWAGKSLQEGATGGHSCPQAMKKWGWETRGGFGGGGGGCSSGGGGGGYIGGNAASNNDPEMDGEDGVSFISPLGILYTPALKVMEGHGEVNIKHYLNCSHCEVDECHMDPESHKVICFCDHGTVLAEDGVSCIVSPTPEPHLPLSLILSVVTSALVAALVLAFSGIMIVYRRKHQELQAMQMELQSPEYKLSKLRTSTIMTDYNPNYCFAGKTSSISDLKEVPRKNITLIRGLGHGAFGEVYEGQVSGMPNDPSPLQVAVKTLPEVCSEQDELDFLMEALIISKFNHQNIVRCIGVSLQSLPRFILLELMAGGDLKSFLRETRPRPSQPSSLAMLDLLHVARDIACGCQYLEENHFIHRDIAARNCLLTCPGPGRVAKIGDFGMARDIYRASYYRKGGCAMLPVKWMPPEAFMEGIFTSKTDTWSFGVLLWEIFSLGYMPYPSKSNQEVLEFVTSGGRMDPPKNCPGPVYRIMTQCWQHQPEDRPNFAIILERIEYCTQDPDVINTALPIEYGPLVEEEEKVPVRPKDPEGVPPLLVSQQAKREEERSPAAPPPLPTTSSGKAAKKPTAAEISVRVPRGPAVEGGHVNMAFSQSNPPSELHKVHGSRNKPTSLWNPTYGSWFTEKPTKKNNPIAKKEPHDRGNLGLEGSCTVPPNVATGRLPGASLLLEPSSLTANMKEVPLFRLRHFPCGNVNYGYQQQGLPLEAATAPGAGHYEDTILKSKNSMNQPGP

[29] = target: TAOK1 (human) (UniProt Q7L7X3)
[30] = target: STK17B (human) (UniProt O94768)
[31] = target: RIOK2 (human) (UniProt Q9BVS4)
[32] = target: PTK6 (human) (UniProt Q13882)
[33] = target: DCLK2 (human) (UniProt Q8N568)
[34] = target: AURKB (human) (UniProt Q96GD4)
[35] = target: FLT3 (human) (UniProt P36888)
[36] = target: EPHA7 (human) (UniProt Q15375)
[37] = target: PAK2 (human) (UniProt Q13177)
[38] = target: PIP4K2B (human) (UniProt P78356)
[39] = target: ROS1 (human) (UniProt P08922)
[40] = target: MAP4K5 (human) (UniProt Q9Y4K4)

Chain of RPS6KA5 KD2 (human) (O75582 whole entry, looked up): as the sequence (O75582 whole entry, looked up) above

With O=C1Nc2ccc(I)cc2/C1=C/c1cc(Br)c(O)c(Br)c1 the kinase still bound, per cent of control [1] was 100%, the kinase still bound, per cent of control [2] was 44% and the kinase still bound, per cent of control [3] was 76%. For the same compound, the kinase still bound, per cent of control [4] was 44%, the kinase still bound, per cent of control [5] was 11% and the kinase still bound, per cent of control [6] was 12%. It also gave a kinase still bound, per cent of control [7] of 63%, a kinase still bound, per cent of control [8] of 96% and a kinase still bound, per cent of control [9] of 83%. The kinase still bound, per cent of control [10] was 33%, the kinase still bound, per cent of control [11] was 41% and the kinase still bound, per cent of control [12] was 87%. The kinase still bound, per cent of control [13] was 83%, the kinase still bound, per cent of control [14] was 100% and the kinase still bound, per cent of control [15] was 100%. It also gave a kinase still bound, per cent of control [16] of 31%, a kinase still bound, per cent of control [17] of 3.2% and a kinase still bound, per cent of control [18] of 100%. It also gave a kinase still bound, per cent of control [19] of 100%, a kinase still bound, per cent of control [20] of 100% and a kinase still bound, per cent of control [21] of 36%. The kinase still bound, per cent of control [22] was 100%, the kinase still bound, per cent of control [23] was 85% and the kinase still bound, per cent of control [24] was 100%. It also gave a kinase still bound, per cent of control [25] of 12%, a kinase still bound, per cent of control [26] of 88% and a kinase still bound, per cent of control [27] of 88%. The kinase still bound, per cent of control [28] was 100%, the kinase still bound, per cent of control [29] was 54% and the kinase still bound, per cent of control [30] was 40%. The kinase still bound, per cent of control [31] was 35%, the kinase still bound, per cent of control [32] was 85% and the kinase still bound, per cent of control [33] was 94%. It also gave a kinase still bound, per cent of control [34] of 9.4%, a kinase still bound, per cent of control [35] of 3.6% and a kinase still bound, per cent of control [36] of 100%. For the same compound, the kinase still bound, per cent of control [37] was 53%, the kinase still bound, per cent of control [38] was 10% and the kinase still bound, per cent of control [39] was 99%. It also gave a kinase still bound, per cent of control [40] of 100%.

For C[C@@H](Oc1cc(-n2cnc3ccc(CN4CCN(C)CC4)cc32)sc1C(N)=O)c1ccccc1C(F)(F)F, the kinase still bound, per cent of control [1] was 57%, the kinase still bound, per cent of control [2] was 53% and the kinase still bound, per cent of control [3] was 82%. The kinase still bound, per cent of control [4] was 100%, the kinase still bound, per cent of control [5] was 40% and the kinase still bound, per cent of control [6] was 1.2%. It also gave a kinase still bound, per cent of control [7] of 34%, a kinase still bound, per cent of control [8] of 100% and a kinase still bound, per cent of control [9] of 94%. The kinase still bound, per cent of control [10] was 31%, the kinase still bound, per cent of control [11] was 89% and the kinase still bound, per cent of control [12] was 41%. The kinase still bound, per cent of control [13] was 100%, the kinase still bound, per cent of control [14] was 100% and the kinase still bound, per cent of control [15] was 100%. It also gave a kinase still bound, per cent of control [16] of 100%, a kinase still bound, per cent of control [17] of 4.6% and a kinase still bound, per cent of control [18] of 100%. The kinase still bound, per cent of control [19] was 3.9%, the kinase still bound, per cent of control [20] was 100% and the kinase still bound, per cent of control [21] was 59%. For the same compound, the kinase still bound, per cent of control [22] was 100%, the kinase still bound, per cent of control [23] was 61% and the kinase still bound, per cent of control [24] was 0.1%. It also gave a kinase still bound, per cent of control [25] of 26%, a kinase still bound, per cent of control [26] of 100% and a kinase still bound, per cent of control [27] of 100%. For the same compound, the kinase still bound, per cent of control [28] was 100%, the kinase still bound, per cent of control [29] was 14% and the kinase still bound, per cent of control [30] was 100%. It also gave a kinase still bound, per cent of control [31] of 65%, a kinase still bound, per cent of control [32] of 93% and a kinase still bound, per cent of control [33] of 100%. It also gave a kinase still bound, per cent of control [34] of 80%, a kinase still bound, per cent of control [35] of 11% and a kinase still bound, per cent of control [36] of 83%. It also gave a kinase still bound, per cent of control [37] of 38%, a kinase still bound, per cent of control [38] of 5.8% and a kinase still bound, per cent of control [39] of 84%. The kinase still bound, per cent of control [40] was 68%.
